Reference: patent US20260007684A1, “AMIDE DERIVATIVES FOR INHIBITING NLRP3 AND USES THEREOF” (Ventus Therapeutics U.S., Inc., priority 2023, published 2026)

The molecules below were run against human NLRP3 (Homo sapiens (Human), UniProt Q96P20) (assay: Scintillation Proximity (SPA) NLRP3 Assay: displacement of 3H-MCC950). Settings: SPA IC50, displacement of 3H-MCC950.
Type: binding

Sequence of human NLRP3 (Q96P20 whole entry): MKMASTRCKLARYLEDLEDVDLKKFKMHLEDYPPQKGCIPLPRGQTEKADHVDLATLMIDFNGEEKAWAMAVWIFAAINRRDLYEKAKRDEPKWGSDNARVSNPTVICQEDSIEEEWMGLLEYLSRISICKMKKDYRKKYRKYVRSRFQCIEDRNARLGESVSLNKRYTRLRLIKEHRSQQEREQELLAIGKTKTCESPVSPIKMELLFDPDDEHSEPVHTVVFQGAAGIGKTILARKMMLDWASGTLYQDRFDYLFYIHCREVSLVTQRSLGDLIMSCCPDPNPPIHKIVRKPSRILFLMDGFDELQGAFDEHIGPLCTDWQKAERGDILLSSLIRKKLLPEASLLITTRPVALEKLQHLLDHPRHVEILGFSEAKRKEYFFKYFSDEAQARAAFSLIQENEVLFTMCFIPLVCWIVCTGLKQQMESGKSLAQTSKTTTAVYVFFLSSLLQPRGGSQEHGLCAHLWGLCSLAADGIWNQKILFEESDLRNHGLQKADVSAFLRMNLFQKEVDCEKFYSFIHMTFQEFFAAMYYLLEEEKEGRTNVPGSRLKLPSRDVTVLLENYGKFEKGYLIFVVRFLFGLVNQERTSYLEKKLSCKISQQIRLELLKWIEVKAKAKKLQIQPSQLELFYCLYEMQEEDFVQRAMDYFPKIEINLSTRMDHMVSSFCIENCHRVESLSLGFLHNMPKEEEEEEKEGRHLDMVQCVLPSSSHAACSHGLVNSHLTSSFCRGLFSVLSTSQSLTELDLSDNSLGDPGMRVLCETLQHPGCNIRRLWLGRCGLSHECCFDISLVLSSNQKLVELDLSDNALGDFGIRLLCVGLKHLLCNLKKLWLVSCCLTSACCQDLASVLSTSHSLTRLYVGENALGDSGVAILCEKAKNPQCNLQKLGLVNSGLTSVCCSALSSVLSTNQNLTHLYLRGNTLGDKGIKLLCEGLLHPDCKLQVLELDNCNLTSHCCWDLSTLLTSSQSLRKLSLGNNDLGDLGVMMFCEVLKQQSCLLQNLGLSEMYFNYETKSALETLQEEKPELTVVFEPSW

Row | Structure (SMILES) | IC50 [µM]
1 | O=C(N[C@H]1CCC[C@H]2CC[C@@H]1N2c1nnn[nH]1)C1(c2ccc(Cl)cc2)CC1 (single isomer, unassigned) [9D*, N-(9-(1H-tetrazol-5-yl)-9-azabicyclo[4.2.1]nonan-2-yl)-1-(4-chlorophenyl)cyclopropane-1-carboxamide] | 10 to 50

Same assay, conditions: displacement of 3H-MCC950; read-out: SPA IC50

Row | IC50 [µM] | Structure (SMILES)
2 | 1 to 10 | C[C@H]1CCN(c2nnn[nH]2)C[C@H](NC(=O)C2(c3ccc(OC(F)(F)F)cc3O)CC2)C1 (single isomer, unassigned) [62C*]
3 | 50 to 100 | Cc1ccc(C2(C(=O)N[C@H]3C[C@H](C)CCN(c4nnn[nH]4)C3)CC2)cc1 (single isomer, unassigned) [71B*]
4 | > 100 | C[C@H]1CCN(c2nnn[nH]2)C[C@H](NC(=O)C2(c3ccc(Cl)nc3O)CC2)C1 (single isomer, unassigned) [100C*]
5 | 1 to 10 | C[C@@H]1CCN(c2nnn[nH]2)C[C@@H](NC(=O)C2(c3ccc(C4CC4)cc3)CC2)C1 (single isomer, unassigned) [2B*]
6 | 10 to 50 | Cc1ccc(C2(C(=O)N[C@@H]3C[C@@H](C)CCN(c4nnn[nH]4)C3)CC2)c(O)c1F (single isomer, unassigned) [22C*, 1-(3-fluoro-2-hydroxy-4-methylphenyl)-N-(5-methyl-1-(1H-tetrazol-5-yl)azepan-3-yl)cyclopropane-1-carboxamide]
7 | 10 to 50 | O=C(N[C@@H]1C[C@@H](F)CN(c2nnn[nH]2)C1)C1(c2ccc(Cl)cc2)CC1 [Compound 44C, 1-(4-chlorophenyl)-N-[(3R,5R)-5-fluoro-1-(1H-tetrazol-5-yl)-3-piperidyl]cyclopropanecarboxamide]
8 | 1 to 10 | C[C@@H]1CCN(c2nnn[nH]2)C[C@@H](NC(=O)C2(c3ccc(OC(F)F)c(F)c3)CC2)C1 (single isomer, unassigned) [73B*]
9 | 10 to 50 | C[C@@H]1CC[C@@H](NC(=O)C2(c3ccc(Cl)cc3O)CC2)CN(c2nnn[nH]2)C1 (single isomer, unassigned) [90C*]
10 | 10 to 50 | C[C@H]1CCN(c2nnn[nH]2)C[C@H](NC(=O)C2(c3ccc(Cl)c(F)c3)CC2)C1 (single isomer, unassigned) [65C*]
11 | 1 to 10 | C[C@@H]1CCN(c2nnn[nH]2)CC(NC(=O)C2(c3ccc(OC(F)F)cc3)CC2)C1 (stereo in doubt) [58B*, 1-(4-(difluoromethoxy)phenyl)-N-((3S,5R)-5-methyl-1-(1H-tetrazol-5-yl)azepan-3-yl)cyclopropane-1-carboxamide]
12 | > 100 | C[C@H]1CCN(c2nnn[nH]2)C[C@H](NC(=O)C2(c3ccc(Cl)cc3)CC2)C1 (single isomer, unassigned) [12C*, 1-(4-chlorophenyl)-N-(5-methyl-1-(1H-tetrazol-5-yl)azepan-3-yl)cyclopropane-1-carboxamide]

Row | Structure (SMILES) | IC50 [µM]
13 | C[C@H]1C[C@H](NC(=O)C2(c3ccc(C(F)F)cc3)CC2)[C@@H]2CC[C@H]1N2c1nnn[nH]1 [86D*, 1-(4-(difluoromethyl)phenyl)-N-((1S,2S,4S,5R)-4-methyl-8-(1H-tetrazol-5-yl)-8-azabicyclo[3.2.1]octan-2-yl)cyclopropane-1-carboxamide] | > 100
14 | C[C@@H]1C[C@H](NC(=O)C2(c3ccc(OC(F)F)cc3)CC2)[C@H]2CC[C@@H]1N2c1nnn[nH]1 (single isomer, unassigned) [35B*] | 50 to 100
15 | C[C@@H]1C[C@H](NC(=O)C2(c3ccc(C4CC4)c(F)c3O)CC2)[C@H]2CC[C@@H]1N2c1nnn[nH]1 [83B*, 1-(4-cyclopropy1-3-fluoro-2-hydroxyphenyl)-N-((1R,2S,4R,5S)-4-methyl-8-(1H-tetrazol-5-yl)-8-azabicyclo[3.2.1]octan-2-yl)cyclopropane-1-carboxamide] | 10 to 50
16 | O=C(N[C@H]1C[C@H](C(F)(F)F)[C@H]2CC[C@@H]1N2c1nnn[nH]1)C1(c2ccc(Cl)cc2)CC1 (single isomer, unassigned) [103D*] | 10 to 50
